This passage reports % of control and % of inhibition results from ChEMBL document CHEMBL5465560, “Selectivity Literature for EUbOPEN Chemogenomic Library” (2024).

For test [1], the target named is MAP kinase-activated protein kinase 2 (Homo sapiens, UniProt P49137). The conditions noted are these: at 10 µM.
For test [2], the target named is Muscarinic acetylcholine receptor M3 (Homo sapiens, UniProt P20309). Put plainly: Selectivity interaction (GPCR panel (PDSP screen)) EUB0001079a CHRM3. The note with it: at 10 µM.
Test [3] addresses Serine/threonine-protein kinase WNK4 (Homo sapiens) (UniProt Q96J92). Put plainly: Selectivity interaction (KinomeScan (DiscoverX)) EUB0001079a WNK4. The conditions noted are these: at 1 µM.
For test [4], the target named is Cyclin-dependent kinase 3 (Homo sapiens) (UniProt Q00526). Put plainly: Selectivity interaction (KinomeScan (DiscoverX)) EUB0000092b CDK3. The note with it: at 10 µM.
Test [5] addresses Phosphorylase b kinase gamma catalytic chain, skeletal muscle/heart isoform (Homo sapiens) (UniProt Q16816). Put plainly: Selectivity interaction (KinomeScan (DiscoverX)) EUB0000666a PHKG1. The conditions noted are these: at 10 µM.
In test [6] the test system is Tyrosine-protein kinase ABL1 (Homo sapiens), P00519 [F317L]. Put plainly: (§1) Selectivity interaction (KinomeScan (DiscoverX)) EUB0000666a ABL1. The note with it: at 10 µM.
The subject of test [7] is Tyrosine-protein kinase ABL1 (Homo sapiens), P00519 [T315I]. The test is described as §1. The note with it: at 10 µM.
The target in test [8] is Tyrosine-protein kinase ABL1 (Homo sapiens, UniProt P00519). The description is as §1. The note with it: at 10 µM.
Test [9] relates to Tyrosine-protein kinase ABL1 (Homo sapiens), P00519 [Q252H]. Described as §1. The note with it: at 10 µM.
Test [10] has as its system Tyrosine-protein kinase ABL1 (Homo sapiens), P00519 [E255K]. The description is as §1. The conditions noted are these: at 10 µM.
The subject of test [11] is Tyrosine-protein kinase ABL1 (Homo sapiens), P00519 [H396P]. Described as §1. The conditions noted are these: at 10 µM.
In test [12] the test system is Tyrosine-protein kinase ABL1 (Homo sapiens), P00519 [F317I]. Described as §1. The note with it: at 10 µM.
Test [13] concerns the target Mitogen-activated protein kinase kinase kinase kinase 5 (Homo sapiens) (UniProt Q9Y4K4). Put plainly: Selectivity interaction (Kinase panel (Z-LYTE Assay)) EUB0001632a MAP4K5. The note with it: at 10 µM.
The target of test [14] is Casein kinase I isoform gamma-2 (Homo sapiens) (UniProt P78368). Put plainly: Selectivity interaction (KinomeScan (DiscoverX)) EUB0000607a CSNK1G2. The note with it: at 10 µM.
Test [15] concerns the target High affinity nerve growth factor receptor (Homo sapiens, UniProt P04629). Put plainly: Selectivity interaction (KinomeScan (DiscoverX)) EUB0000607a NTRK1. The note with it: at 10 µM.
The target in test [16] is 5'-AMP-activated protein kinase catalytic subunit alpha-1 (Homo sapiens, UniProt Q13131). Put plainly: Selectivity interaction (KinomeScan (DiscoverX)) EUB0000607a PRKAA1. The note with it: at 10 µM.
Test [17] deals with T1, Serine/threonine-protein kinase Sgk3 (Homo sapiens) (UniProt Q96BR1).
T1 sequence (whole entry): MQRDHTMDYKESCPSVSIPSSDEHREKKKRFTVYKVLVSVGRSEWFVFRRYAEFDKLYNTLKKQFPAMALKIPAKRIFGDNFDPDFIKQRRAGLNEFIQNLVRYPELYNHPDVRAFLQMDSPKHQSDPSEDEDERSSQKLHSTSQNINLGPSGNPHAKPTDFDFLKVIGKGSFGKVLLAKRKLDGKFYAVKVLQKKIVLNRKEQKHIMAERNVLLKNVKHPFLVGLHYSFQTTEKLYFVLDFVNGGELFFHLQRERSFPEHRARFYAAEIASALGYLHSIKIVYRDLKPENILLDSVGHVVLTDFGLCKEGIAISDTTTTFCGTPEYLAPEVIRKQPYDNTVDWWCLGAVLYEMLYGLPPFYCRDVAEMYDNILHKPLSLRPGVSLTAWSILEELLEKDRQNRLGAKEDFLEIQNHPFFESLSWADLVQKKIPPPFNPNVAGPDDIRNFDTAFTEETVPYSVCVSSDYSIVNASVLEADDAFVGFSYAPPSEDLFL
Put plainly: Selectivity interaction (ActivX KiNativ screen (kinase selectivity in THP-1 cell lysates)) EUB0000639a SGK3. It counts as subcellular. The note with it: lysate, at 0.2 µM.

Test [18] concerns the target T2, Serine/threonine-protein kinase TBK1 (Homo sapiens) (UniProt Q9UHD2).
T2 sequence (whole entry): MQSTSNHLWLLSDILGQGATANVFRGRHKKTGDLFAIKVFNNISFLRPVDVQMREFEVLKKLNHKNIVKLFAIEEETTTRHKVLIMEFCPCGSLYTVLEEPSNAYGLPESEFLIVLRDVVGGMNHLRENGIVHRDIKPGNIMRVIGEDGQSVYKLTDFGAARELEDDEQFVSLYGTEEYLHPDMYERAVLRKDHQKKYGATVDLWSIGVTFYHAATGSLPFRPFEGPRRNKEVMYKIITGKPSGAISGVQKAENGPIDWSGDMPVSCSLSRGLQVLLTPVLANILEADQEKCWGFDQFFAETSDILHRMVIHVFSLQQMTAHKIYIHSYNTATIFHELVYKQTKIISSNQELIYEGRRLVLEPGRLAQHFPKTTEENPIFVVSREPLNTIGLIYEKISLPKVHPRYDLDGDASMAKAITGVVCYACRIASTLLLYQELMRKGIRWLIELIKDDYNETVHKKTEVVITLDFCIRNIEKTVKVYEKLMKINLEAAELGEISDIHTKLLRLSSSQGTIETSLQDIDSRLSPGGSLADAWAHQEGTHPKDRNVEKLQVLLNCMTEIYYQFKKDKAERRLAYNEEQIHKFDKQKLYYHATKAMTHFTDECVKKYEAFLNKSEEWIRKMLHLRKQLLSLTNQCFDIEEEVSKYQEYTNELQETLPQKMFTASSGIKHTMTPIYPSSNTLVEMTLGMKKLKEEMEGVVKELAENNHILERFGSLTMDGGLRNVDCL
Put plainly: Selectivity interaction (ActivX KiNativ screen (kinase selectivity in THP-1 cell lysates)) EUB0000639a TBK1. The format is subcellular. The conditions noted are these: lysate, at 0.01 µM.

Cyclin-dependent kinase 3 (Homo sapiens), sequence (Q00526 whole entry, looked up, canonical isoform): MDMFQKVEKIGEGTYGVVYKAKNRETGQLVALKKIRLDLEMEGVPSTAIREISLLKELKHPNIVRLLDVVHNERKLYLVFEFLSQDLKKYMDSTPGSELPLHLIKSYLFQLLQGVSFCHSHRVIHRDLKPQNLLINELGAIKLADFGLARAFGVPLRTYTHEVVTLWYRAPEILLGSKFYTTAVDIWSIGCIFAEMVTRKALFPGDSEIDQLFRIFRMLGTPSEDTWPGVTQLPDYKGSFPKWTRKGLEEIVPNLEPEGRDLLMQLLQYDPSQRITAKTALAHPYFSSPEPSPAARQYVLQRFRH
High affinity nerve growth factor receptor, sequence (P04629 33-796 limits assumed): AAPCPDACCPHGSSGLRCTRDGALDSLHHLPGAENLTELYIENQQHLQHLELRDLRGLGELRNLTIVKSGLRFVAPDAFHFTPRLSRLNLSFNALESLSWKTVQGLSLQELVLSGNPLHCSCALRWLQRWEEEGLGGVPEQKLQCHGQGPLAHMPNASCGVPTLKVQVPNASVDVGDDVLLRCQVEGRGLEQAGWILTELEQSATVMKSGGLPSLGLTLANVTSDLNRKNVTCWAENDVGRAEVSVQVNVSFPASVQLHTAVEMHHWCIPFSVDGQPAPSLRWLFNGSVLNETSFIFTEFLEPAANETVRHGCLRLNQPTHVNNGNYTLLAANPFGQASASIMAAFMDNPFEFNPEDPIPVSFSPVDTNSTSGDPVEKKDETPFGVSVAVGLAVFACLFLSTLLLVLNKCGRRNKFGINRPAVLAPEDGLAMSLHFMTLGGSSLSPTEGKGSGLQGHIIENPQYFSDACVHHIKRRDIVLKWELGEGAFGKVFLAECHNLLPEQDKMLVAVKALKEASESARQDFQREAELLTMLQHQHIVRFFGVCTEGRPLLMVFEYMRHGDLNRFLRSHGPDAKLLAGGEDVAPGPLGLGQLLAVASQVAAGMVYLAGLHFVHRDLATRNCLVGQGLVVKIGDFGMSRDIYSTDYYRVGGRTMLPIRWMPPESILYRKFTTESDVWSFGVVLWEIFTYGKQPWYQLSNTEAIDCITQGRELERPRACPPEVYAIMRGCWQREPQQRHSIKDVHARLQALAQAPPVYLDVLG
Phosphorylase b kinase gamma catalytic chain, skeletal muscle/heart isoform (Homo sapiens), sequence (Q16816 whole entry, looked up, canonical isoform): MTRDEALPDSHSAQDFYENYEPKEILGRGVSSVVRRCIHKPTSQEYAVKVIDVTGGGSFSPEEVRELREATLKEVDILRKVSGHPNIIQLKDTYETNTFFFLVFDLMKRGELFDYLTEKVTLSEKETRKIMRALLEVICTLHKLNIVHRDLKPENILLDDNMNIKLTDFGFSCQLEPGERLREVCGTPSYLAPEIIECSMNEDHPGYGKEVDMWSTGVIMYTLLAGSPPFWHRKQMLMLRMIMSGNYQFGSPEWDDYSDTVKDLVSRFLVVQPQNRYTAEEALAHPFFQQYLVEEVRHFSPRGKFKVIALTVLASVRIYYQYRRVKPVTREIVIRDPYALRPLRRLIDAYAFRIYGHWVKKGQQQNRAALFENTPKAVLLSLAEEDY
Casein kinase I isoform gamma-2 (Homo sapiens), sequence (P78368 whole entry, looked up, canonical isoform): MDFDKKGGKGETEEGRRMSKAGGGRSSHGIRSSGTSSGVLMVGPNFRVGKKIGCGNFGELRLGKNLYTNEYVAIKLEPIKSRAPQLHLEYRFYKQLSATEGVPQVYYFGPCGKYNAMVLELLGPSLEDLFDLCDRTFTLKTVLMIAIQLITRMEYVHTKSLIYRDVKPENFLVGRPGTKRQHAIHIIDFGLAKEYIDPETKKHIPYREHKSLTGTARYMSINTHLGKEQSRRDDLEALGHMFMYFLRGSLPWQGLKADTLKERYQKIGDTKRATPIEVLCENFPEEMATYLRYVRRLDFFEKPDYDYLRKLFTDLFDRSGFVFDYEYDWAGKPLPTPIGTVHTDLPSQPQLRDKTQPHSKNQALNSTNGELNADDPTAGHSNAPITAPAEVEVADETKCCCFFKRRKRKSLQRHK
5'-AMP-activated protein kinase catalytic subunit alpha-1, sequence (Q13131 whole entry, looked up): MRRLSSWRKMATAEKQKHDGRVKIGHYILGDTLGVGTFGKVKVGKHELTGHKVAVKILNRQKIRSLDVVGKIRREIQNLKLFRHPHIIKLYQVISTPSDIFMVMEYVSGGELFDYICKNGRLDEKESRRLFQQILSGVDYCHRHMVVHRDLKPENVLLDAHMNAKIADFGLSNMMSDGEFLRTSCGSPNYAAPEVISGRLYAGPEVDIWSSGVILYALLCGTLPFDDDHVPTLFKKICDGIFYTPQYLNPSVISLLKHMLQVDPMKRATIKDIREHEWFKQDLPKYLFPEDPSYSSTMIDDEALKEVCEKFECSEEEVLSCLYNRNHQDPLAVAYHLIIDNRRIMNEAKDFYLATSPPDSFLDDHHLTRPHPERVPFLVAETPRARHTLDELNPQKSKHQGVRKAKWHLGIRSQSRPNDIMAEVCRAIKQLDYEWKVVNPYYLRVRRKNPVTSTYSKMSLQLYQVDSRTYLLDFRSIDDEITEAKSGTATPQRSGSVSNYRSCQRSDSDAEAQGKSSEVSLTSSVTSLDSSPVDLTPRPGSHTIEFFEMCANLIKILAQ
MAP kinase-activated protein kinase 2, sequence (P49137 whole entry, looked up): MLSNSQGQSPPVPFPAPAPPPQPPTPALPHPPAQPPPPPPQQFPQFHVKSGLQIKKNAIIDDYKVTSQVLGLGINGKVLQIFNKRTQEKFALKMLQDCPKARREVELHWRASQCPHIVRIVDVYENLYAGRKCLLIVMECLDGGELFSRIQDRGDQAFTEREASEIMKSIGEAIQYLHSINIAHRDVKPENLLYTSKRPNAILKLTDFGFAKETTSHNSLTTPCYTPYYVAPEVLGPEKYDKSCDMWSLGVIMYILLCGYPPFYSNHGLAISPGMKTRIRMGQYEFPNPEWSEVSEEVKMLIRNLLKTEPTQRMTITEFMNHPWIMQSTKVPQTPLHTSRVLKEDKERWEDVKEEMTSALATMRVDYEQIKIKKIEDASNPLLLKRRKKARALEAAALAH
Muscarinic acetylcholine receptor M3, sequence (P20309 whole entry, looked up): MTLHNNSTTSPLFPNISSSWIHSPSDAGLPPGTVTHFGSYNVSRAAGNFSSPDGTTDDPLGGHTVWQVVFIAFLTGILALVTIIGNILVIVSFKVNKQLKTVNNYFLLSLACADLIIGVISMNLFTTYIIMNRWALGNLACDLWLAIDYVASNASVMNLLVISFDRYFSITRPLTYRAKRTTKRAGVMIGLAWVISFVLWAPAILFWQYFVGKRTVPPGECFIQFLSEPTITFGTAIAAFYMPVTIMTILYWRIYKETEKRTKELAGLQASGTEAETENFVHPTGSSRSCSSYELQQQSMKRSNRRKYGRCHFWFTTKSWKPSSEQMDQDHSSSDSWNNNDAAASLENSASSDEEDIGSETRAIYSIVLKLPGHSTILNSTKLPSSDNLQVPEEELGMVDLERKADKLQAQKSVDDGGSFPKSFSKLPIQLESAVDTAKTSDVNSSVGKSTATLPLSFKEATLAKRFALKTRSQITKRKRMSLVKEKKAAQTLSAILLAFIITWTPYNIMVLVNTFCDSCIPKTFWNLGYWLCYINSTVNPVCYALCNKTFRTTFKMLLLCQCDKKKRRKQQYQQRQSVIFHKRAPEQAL
Mitogen-activated protein kinase kinase kinase kinase 5 (Homo sapiens), sequence (Q9Y4K4 whole entry, looked up, canonical isoform): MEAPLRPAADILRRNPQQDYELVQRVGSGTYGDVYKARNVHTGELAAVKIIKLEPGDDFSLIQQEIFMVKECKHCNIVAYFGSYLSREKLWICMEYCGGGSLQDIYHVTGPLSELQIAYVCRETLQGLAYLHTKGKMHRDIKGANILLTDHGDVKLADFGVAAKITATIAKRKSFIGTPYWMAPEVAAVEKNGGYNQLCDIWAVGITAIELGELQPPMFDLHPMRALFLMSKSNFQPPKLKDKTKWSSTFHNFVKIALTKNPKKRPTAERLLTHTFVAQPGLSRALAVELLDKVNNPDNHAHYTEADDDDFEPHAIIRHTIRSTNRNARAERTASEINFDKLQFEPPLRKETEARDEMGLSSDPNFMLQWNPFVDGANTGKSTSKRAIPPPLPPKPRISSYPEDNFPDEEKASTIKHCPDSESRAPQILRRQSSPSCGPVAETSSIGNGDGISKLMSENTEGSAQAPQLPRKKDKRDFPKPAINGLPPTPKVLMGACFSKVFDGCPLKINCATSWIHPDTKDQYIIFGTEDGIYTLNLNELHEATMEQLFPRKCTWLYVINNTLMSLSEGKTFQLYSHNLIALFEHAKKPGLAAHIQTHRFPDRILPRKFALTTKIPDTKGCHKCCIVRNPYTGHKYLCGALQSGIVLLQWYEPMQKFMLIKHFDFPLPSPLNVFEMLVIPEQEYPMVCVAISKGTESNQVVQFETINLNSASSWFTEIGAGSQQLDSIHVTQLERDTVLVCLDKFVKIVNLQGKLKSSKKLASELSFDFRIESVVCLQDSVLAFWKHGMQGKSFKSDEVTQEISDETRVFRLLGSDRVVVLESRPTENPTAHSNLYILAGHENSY

As to `Cc1cc([C@@H](C)Nc2ccccc2C(=O)O)c2nc(N3CCOCC3)cc(=O)n2c1` [AZD-6482], the % of control in test [1] came to 66%.

For the compound `Nc1cnc(N2CCc3cc(S(=O)(=O)Nc4c(F)cc(Cl)cc4F)cc(N4CCCC4=O)c32)nc1` [TP-020n], the % of inhibition in test [2] was -18%. The % of control in test [3] was determined as 100%.

Take `CCC(=O)N1CCN(c2ccc(-n3c(=O)ccc4cnc5ccc(-c6cnc7ccccc7c6)cc5c43)cc2C(F)(F)F)CC1`: the % of control in test [4] was determined as 100%.

Regarding `O=C(NOC[C@H](O)CO)c1ccc(F)c(F)c1Nc1ccc(I)cc1F`, the % of control in [5] amounted to 100%; in test [6], 100%; in [7], 82%; in test [8] it was 77%; in test [9], 100%; in [10] it was 100%. Also, the % of control in [11] and in test [12] was 100% in each case.

For `Cn1cc(-n2cnc3c(NCc4nc5cc(Cl)c(Cl)cc5[nH]4)nc(N4CCOCC4)nc32)cn1`, in [13], the % of control came out at 3.28%.

In the case of `CNC(=O)Nc1ccc(-c2nc(N3CC4CCC(C3)O4)c3cnn(C4CCC5(CC4)OCCO5)c3n2)cc1`, the figures for the % of control in test [14], in [15] and in [16] were 95%, 100% and 94%, respectively.

In the case of `CC[C@@H]1[C@H](F)C(=O)N[C@@H]1COc1nccc2cc(C(N)=O)c(OC)cc12` [ZIMLOVISERTIB], the % of inhibition in test [17] was -5.7%; in test [18] it was 1.3%.
